Source: patent publication US20110251158A1, “FULLERENE THERAPIES FOR INFLAMMATION AND INHIBITION OF BUILD-UP OF ARTERIAL PLAQUE” (Luna Innovations Incorporated, priority 2008, published 2011)

What was measured:
[1] = tested on: Peripheral blood basophils (PBB); test: Anti-IgE-induced IL-13 secretion from PBB (ELISA); format: cell-based, human; settings: for Mean % Inhibition of IL-13 Secretion: 15 ng/ml anti-IgE
Description: PBB were obtained from two sources: donors recruited under an IRB-approved protocol after informed consent or from leukopheresis packs obtained from the Johns Hopkins Hemapheresis Center. PBB were purified to ≧99% purity as described in Vonakis, B. M., Gibbons S Jr, Sora, R., Langdon, J. M., and MacDonald, S. M. J. Allergy Clin. Immunol. 108, 822-831 (2001), and Miura, K., Saini, S. S., Gauvreau, G., and MacGlashan, D. W., Jr. J. Immunol. 167, 2282-2291 (2001). Purified PBB were incubated overnight (20 hours) with a fullerene derivative (5 μg/ml) or vehicle control and a minimal (non-stimulatory) concentration of IL-3 (2 pg/ml) to prevent apoptosis. The next day, cells were washed and aliquoted for the histamine release assay by treatment with 0.1 mg/ml of goat polyclonal anti-IgE, buffer alone (spontaneous release) or perchloric acid (total histamine determination). Histamine was quantified in cell free supernatants using automated fluorimetry in duplicate. In a second set of experiments the two fullerene derivatives (at 5 μg/ml) were incubated with PBB for 20 hours, washed cells stimulated with 15 ng/ml anti-IgE for 18 hours in duplicate and supernatants collected for quantification of IL-13 by in-house ELISA. The optimal doses of anti-IgE are chosen for activation of PBB.

[2] = tested on: Mast cells (MC); test: Anti-FcεRI-induced GM-CSF cytokine production in MC; format: cell-based, human; settings: maximum inhibition set to 100%
Description: MC are a component of the inflammatory response. As such, cultures of human Mast Cells can be used for screening the activity of different fullerene derivatives to evaluate their potential activity in animal models. In this example, human skin tissue was received from the Cooperative Human Tissue Network and MC purified and cultured as described in Kepley, C. L. Int. Arch. Allergy Immunol. 138, 29-39 (2005). The MC were cultured in media containing stem cell factor which is removed from the culture 24 hours prior to experimentation.
For activation, MC were suspended in fresh medium (without cytokines) and incubated for 16 hours with or without fullerene derivatives at 37° C. in a 6% CO2 incubator. […] The next morning, cells were washed and stimulated with anti-FcεRI Abs (3B4; 1 μg/ml) for 30 minutes (β-hexosaminidase) or overnight (GM-CSF) at 37° C. in a 6% CO2 incubator and mediator release measured as described in Zhao, W., Kepley, C. […]
Cells were cultured with fixed concentrations of a fullerene derivative (10 μg/ml; FIGS. 8A and 9A) or different concentrations (FIGS. 8B and 9B) for 16 h, washed and stimulated for 30 min (FIGS. 8A and 8B) or 24 hours (FIGS. 9A and 9B) with optimal concentrations of αanti-FcεRI Abs (3B4; 1 μg/ml). Cells were centrifuged and β-hexosaminidase release and GMCSF levels determined by ELISA.

[3] = tested on: intracellular calcium stores release; test: FcεRI-induced intracellular calcium (Fura-2) in MC; format: cell-based, human; settings: 10 μg/mL overnight; anti-FcεRI 1 μg/mL
Description: MC were pre-treated with or without fullerene derivatives as above, washed with Tyrodes buffer supplemented with BSA, and incubated with Fura-2 AM (2 μM) for 30 minutes at 37° C. Cells were washed, stimulated with anti-FcεRI, and calcium flux measured in real time on a Perkin Elmer LS55 Spectrofluorometer. For ROS production, cells were exposed to fullerene derivatives as above. After washing, cells were re-suspended in X-Vivo medium containing 5 μM dichlorodihydrofluorescein (DCF) at 37° C. for 30 minutes, washed, and activation-induced changes in mean fluorescence was measured with excitation at 502 nm and emission at 523 nm for 15 minutes (19). The data is presented as fluorescence intensity of the 523 nm emission over time. All experiments were performed in triplicate and degranulation was measured in parallel.
Cells were incubated with or without fullerene derivative (10 μg/mL) overnight. The next day cells were challenged with anti-FcεRI (3B4; 1 μg/mL) and calcium stores release was determined by the 340/380 nm ratio (FIGS. 11A and 11B) and ROS measured by DCF detection at 523 nm (FIGS. 11C and 11D). FIGS. 11A and 11C contain cells incubated with the TGA fullerene derivative, and FIGS. 11B and 11D contain cells incubated with the Inos fullerene derivative (10 μg/mL). […]

[4] = tested on: mice; test: In vivo administration of TGA for three weeks: behavior, gross pathology; settings: i.v. daily; 200 ng/three weeks
Source text: Taken together, the derivatives described herein are not cytotoxic to several cell lines tested and appear to have no acute in vivo cytotoxic effects.

C70-tetraglycolic acid [TGA]
FD + anti-IgE (mean ± SEM, ng/ml), IL-13 ([1]; 5 μg/ml FD, 20 hours, 15 ng/ml anti-IgE 18 hours): 79.3 ± 20.9 ng/mL | Mean % Inhibition of IL-13 Secretion ([1]; 5 μg/ml FD, listed as C70-TGA): 52.4% | Mean % Inhibition of IL-13 Secretion ([1]; 5 μg/ml FD, listed as C70-tetraglucolate): significant inhibition | IC50 (IL-13-cytokine production) ([1]; PBB, maximum inhibition set to 100%): 10.6 µg/mL | maximal inhibition of anti-IgE stimulated IL-13 secretion ([1]; detected at 0.5 μg/ml, mean, n=2): 37.4% | IC50 (GMCSF-cytokine production) [2]: 3.3 (±0.6) μg/ml | FcεRI-induced intracellular calcium stores release [3]: inhibited | behavior [4]: no notable differences in behavior | gross pathological examination [4]: no abnormalities
